Reference: PMC11466185, “Mechanisms and efficacy of small molecule latency-promoting agents to inhibit HIV reactivation ex vivo” (JCI Insight, 2024)

System: HIV transcripts (TAR, LLTR, Pol, PolyA, TatRev)
Test: Baseline HIV transcription without activation, PBMCs from ART-suppressed PWH, 24 hours
Format: cell-based
Conditions: no activation; for 5′ elongated HIV transcripts without activation compared to DMSO / Completed HIV transcripts without activation compared to DMSO / Multiply spliced HIV transcripts without activation, median relative to DMSO / HIV splicing (TatRev/PolyA) without activation / HIV transcription levels in the absence of T cell activation (in words): 24 hours; for Multiply spliced HIV transcripts without activation, median relative to DMSO / HIV transcription levels in the absence of T cell activation (in words): at least 3 PWH; for HIV splicing (TatRev/PolyA) without activation: not statistically significant; for LLTR HIV transcripts (DMSO = 100) / Pol HIV transcripts (DMSO = 100) / PolyA HIV transcripts (DMSO = 100) / Tat-Rev HIV transcripts (DMSO = 100) / PolyA/LLTR ratio (DMSO = 1) / TatRev/PolyA ratio (DMSO = 1) / TAR HIV transcripts (DMSO = 100) / LLTR/TAR ratio (DMSO = 1): ruxolitinib 4μM, dinaciclib 8nM, AZD4573 8nM, KRIBB11 2.5μM; for LLTR HIV transcripts (DMSO = 100) / Pol HIV transcripts (DMSO = 100) / PolyA HIV transcripts (DMSO = 100) / Tat-Rev HIV transcripts (DMSO = 100) / TAR HIV transcripts (DMSO = 100): pladienolide B 10nM; for PolyA/LLTR ratio (DMSO = 1) / TatRev/PolyA ratio (DMSO = 1) / LLTR/TAR ratio (DMSO = 1): pladienolide B
Experimental: For a selection of the compounds, we evaluated the ability to reduce baseline HIV transcription without activation. PBMCs were cultured in the presence of individual drugs in DMSO or DMSO alone as a control and harvested after 24 hours. For each drug, we tested PBMCs from at least 3 PWH, as indicated in Supplemental Figure 5B. […] Likewise, pladienolide B appeared to reduce the level of multiply spliced transcripts (33%, Supplemental Figure 5, A and B).
PBMCs were isolated from fresh venous blood from 16 ART-suppressed HIV-infected study participants using Ficoll density gradient centrifugation. The cells were seeded at 6 × 10^6 cells/well and cultured with antiretrovirals (nevirapine and indinavir) to prevent new infection. On the next day, PBMCs were activated with anti-CD3/CD28–coated beads (Invitrogen) in the presence of 20 U/mL IL-2 and individual drugs in DMSO or DMSO alone as a control. Since we were limited in the PBMC yield per study participant, different study participants were used for different experiments (such as the initial screen, dose response, different time points, and studies in activated vs. unstimulated cells). In addition, the yields of PBMCs were sometimes insufficient to test all drugs for a given question or experiment.
Total cellular DNA and RNA were extracted in parallel using Trireagent (Molecular Research Center) according to the manufacturer’s instructions, except for study participants 2147 and 2461 (Figure 4), for whom DNA and RNA were extracted using the QIAGEN AllPrep DNA/RNA/miRNA Universal Kit with on-column DNase I treatment of the RNA and the manufacturer’s modification to enhance recovery of short transcripts. RNA and DNA concentrations were measured using UV spectrophotometry (NanoDrop One, Thermo Fisher Scientific). Total initiated HIV (TAR) transcripts were quantified by a 3-step polyadenylation RT-ddPCR as described previously ([8], [84]). HIV 5′ elongated (LLTR), midtranscribed (Pol), completed (PolyA), and multiply spliced (TatRev) transcripts were quantified by a 2-step RT-ddPCR as previously described ([8]). The levels of each HIV transcript were normalized to 1 μg of total cellular RNA and expressed as a percentage of the (activated) DMSO control. To quantify virion-associated RNA in supernatant, RNA was extracted from 400 μL supernatant using Trireagent-LS (Molecular Research Center) according to the manufacturer’s instructions. Levels of U3-polyadenylated HIV RNA were measured in the supernatant by RT-ddPCR, normalized to copies/mL, and expressed as a percentage of the activated DMSO. For measuring the HIV infection frequency at day 6, the HIV DNA U3-U5 LTR region was quantified by using ddPCR as described previously ([8]). HIV DNA copies were normalized to cell numbers according to the mass of DNA input per well (calculated from the DNA concentration and input volume) ([85]).
Figure S5. CDK-inhibitors appear to decrease baseline HIV splicing even in the absence of T cell activation. Each drug was tested in PBMCs from at least three ART-suppressed study participants and PBMCs were aliquoted into wells at 6x10^6 cells/well. The cells were cultured with antiretrovirals but without activation in the presence of individual drugs in (1 picture or pasted object on this page, not shown here)
DMSO or DMSO alone as control. After 24h, total RNA was extracted and the progression through different stages of HIV transcription was quantified by measuring the levels of initiated (TAR), 5’ elongated (LLTR), mid-transcribed/unspliced (Pol), completed (PolyA) and multiply spliced (TatRev) HIV transcripts. A-B) The levels of all HIV transcripts were quantified, normalized to 1 µg of total cellular RNA, and expressed as a percent of the DMSO control (% of DMSO). A) Medians are shown, as well as the values of the individual study participants in different colors. B) The medians from panel A) are presented. The effect of each drug on the different transcripts was studied in three to six study participants, as […]

[1] = participant 5557 (DMSO cell empty)

| Compound | HIV splicing (TatRev/PolyA) without activation | LLTR HIV transcripts (DMSO = 100) (participant 156) | Pol HIV transcripts (DMSO = 100) (participant 156) | PolyA HIV transcripts (DMSO = 100) (participant 156) | Tat-Rev HIV transcripts (DMSO = 100) (participant 156) | PolyA/LLTR ratio (DMSO = 1) (participant 156) | TatRev/PolyA ratio (DMSO = 1) (participant 156) | LLTR HIV transcripts (DMSO = 100) (participant 163) | Pol HIV transcripts (DMSO = 100) (participant 163) | PolyA HIV transcripts (DMSO = 100) (participant 163) | Tat-Rev HIV transcripts (DMSO = 100) (participant 163) | PolyA/LLTR ratio (DMSO = 1) (participant 163) | LLTR HIV transcripts (DMSO = 100) (participant 1379) | Pol HIV transcripts (DMSO = 100) (participant 1379) | PolyA HIV transcripts (DMSO = 100) (participant 1379) | TAR HIV transcripts (DMSO = 100) (participant 1379) | LLTR HIV transcripts (DMSO = 100) (participant 2027) | Pol HIV transcripts (DMSO = 100) (participant 2027) | PolyA HIV transcripts (DMSO = 100) (participant 2027) | TAR HIV transcripts (DMSO = 100) (participant 2027) | further results |
| --- | --- | --- | --- | --- | --- | --- | --- | --- | --- | --- | --- | --- | --- | --- | --- | --- | --- | --- | --- | --- | --- |
| CC(=O)N[C@@H]1CCC[C@H](C(=O)Nc2cc(-c3cnn4c3CC(C)(C)C4)c(Cl)cn2)C1 [AZD4573] | severely reduce | 37.81 | 28.11 | 93.77 | 0 | 2.48 | 0 | 69.35 | 112.58 | 122.94 | 0 | 1.773 | 41.73 | 110.74 | 43.19 | 286.67 | 76.52 | 30.35 | 87.13 | 211.63 | 5′ elongated HIV transcripts without activation compared to DMSO: did not reduce; Completed HIV transcripts without activation compared to DMSO: did not reduce; Multiply spliced HIV transcripts without activation, median relative to DMSO: 0%; TatRev/PolyA ratio (DMSO = 1) (participant 163): 0; LLTR/TAR ratio (DMSO = 1) (participant 1379): 0.1456; PolyA/LLTR ratio (DMSO = 1) (participant 1379): 1.035; LLTR/TAR ratio (DMSO = 1) (participant 2027): 0.3616; PolyA/LLTR ratio (DMSO = 1) (participant 2027): 1.1386; LLTR HIV transcripts (DMSO = 100) (participant 2750): 134.54; Pol HIV transcripts (DMSO = 100) (participant 2750): 202.4; PolyA HIV transcripts (DMSO = 100) (participant 2750): 70.63; TAR HIV transcripts (DMSO = 100) (participant 2750): 206.7; Tat-Rev HIV transcripts (DMSO = 100) (participant 2750): 0; LLTR/TAR ratio (DMSO = 1) (participant 2750): 0.6509; PolyA/LLTR ratio (DMSO = 1) (participant 2750): 0.525; TatRev/PolyA ratio (DMSO = 1) (participant 2750): 0; LLTR HIV transcripts (DMSO = 100) [1]: 170.71; Pol HIV transcripts (DMSO = 100) [1]: 0; TAR HIV transcripts (DMSO = 100) (participant 5557): 348.03; LLTR/TAR ratio (DMSO = 1) (participant 5557): 0.57 |
| CNc1ccc([N+](=O)[O-])c(Nc2ccc3[nH]ncc3c2)n1 [KRIBB11] | – | 90.95 | 85.77 | 144.03 | 735.63 | 1.584 | 5.108 | 72.79 | 89.89 | 74.5 | 0 | 1.0234 | – | – | – | – | 71.57 | 64.26 | 97.36 | 144.19 | HIV transcription levels in the absence of T cell activation (in words): little effect; TatRev/PolyA ratio (DMSO = 1) (participant 163): 0; LLTR/TAR ratio (DMSO = 1) (participant 2027): 0.4964; PolyA/LLTR ratio (DMSO = 1) (participant 2027): 1.36 |
| CCc1cnn2c(NCc3ccc[n+]([O-])c3)cc(N3CCCC[C@H]3CCO)nc12 [dinaciclib] | severely reduce | 121.36 | 49.08 | 67.47 | 0 | – | – | 142.94 | 207.39 | 173.7 | 0 | – | 40.3 | 0 | 20.95 | 228.89 | 82.61 | 131.38 | 193.29 | 248.84 | 5′ elongated HIV transcripts without activation compared to DMSO: did not reduce; Completed HIV transcripts without activation compared to DMSO: did not reduce; LLTR HIV transcripts (DMSO = 100) (participant 2750): 83.98; Pol HIV transcripts (DMSO = 100) (participant 2750): 102.74; PolyA HIV transcripts (DMSO = 100) (participant 2750): 91.99; TAR HIV transcripts (DMSO = 100) (participant 2750): 108.94; Tat-Rev HIV transcripts (DMSO = 100) (participant 2750): 0; LLTR HIV transcripts (DMSO = 100) [1]: 59.59; Pol HIV transcripts (DMSO = 100) [1]: 0; TAR HIV transcripts (DMSO = 100) (participant 5557): 176.06 |
| N#CC[C@H](C1CCCC1)n1cc(-c2ncnc3[nH]ccc23)cn1 [ruxolitinib] | – | 91.78 | 118.18 | 108.3 | 167.91 | – | – | 148.94 | 91.9 | 183.43 | 0 | – | 49.44 | 31.32 | 9.4 | 170 | 57.36 | 74.54 | 109.96 | 90.7 | HIV transcription levels in the absence of T cell activation (in words): little effect |
| pladienolide B | severely reduce | 85.34 | 133.38 | 150.05 | 66.69 | 1.758 | 0.4444 | 92.55 | 107.42 | 106.43 | 0 | 1.15 | 18.62 | 16.13 | 25.8 | 228.89 | 81.44 | 43.71 | 90.63 | 125.58 | Multiply spliced HIV transcripts without activation, median relative to DMSO: 33%; TatRev/PolyA ratio (DMSO = 1) (participant 163): 0; LLTR/TAR ratio (DMSO = 1) (participant 1379): 0.08133; PolyA/LLTR ratio (DMSO = 1) (participant 1379): 1.3861; LLTR/TAR ratio (DMSO = 1) (participant 2027): 0.6485; PolyA/LLTR ratio (DMSO = 1) (participant 2027): 1.113 |
